# From ChEMBL document CHEMBL1149819, “Synthesis and in vivo anti-mutagenic activity of novel melatonin derivatives” (2008)
# Legend:
# Conditions in all cases: route intragastric
# Mus musculus [1] = experiment: Antimutagenic activity against cyclophosphamide-induced mutagenicity in mouse kidney assessed as protein level per gram of tissue at 18.38 mg/kg administered intragastrically for 1 week; format: functional
# Mus musculus [2] = experiment: Antimutagenic activity against cyclophosphamide-induced mutagenicity in mouse brain assessed as peroxidase activity per microgram of tissue at 18.38 mg/kg administered intragastrically for 1 week; format: functional
# Mus musculus [3] = experiment: Antimutagenic activity against cyclophosphamide-induced mutagenicity in Albino mouse brain assessed as DNA level per gram of tissue at 18.38 mg/kg administered intragastrically for 1 week; format: functional
# Mus musculus [4] = experiment: Antimutagenic activity against cyclophosphamide-induced mutagenicity in mouse brain assessed as cholinesterase activity per microgram of tissue at 18.38 mg/kg administered intragastrically for 1 week; format: functional
# Mus musculus [5] = experiment: Inhibition of cyclophosphamide-induced increase in micronuclei/polychromatic erythrocytes count in mouse at 14.16 mg/kg administered intragastrically for 1 week by micronuclei assay; format: functional; design: scale not given: the % may be the effect or the level left
# Mus musculus [6] = experiment: Antimutagenic activity against cyclophosphamide-induced mutagenicity in Albino mouse testes assessed as RNA level per gram of tissue at 18.38 mg/kg administered intragastrically for 1 week; format: functional, Testis
# Mus musculus [7] = experiment: Antimutagenic activity against cyclophosphamide-induced mutagenicity in Albino mouse testes assessed as DNA level per gram of tissue at 18.38 mg/kg administered intragastrically for 1 week; format: functional, Testis
# Mus musculus [8] = experiment: Antimutagenic activity against cyclophosphamide-induced mutagenicity in Albino mouse liver assessed as DNA level per gram of tissue at 18.38 mg/kg administered intragastrically for 1 week; format: functional
# Mus musculus [9] = experiment: Antimutagenic activity against cyclophosphamide-induced mutagenicity in Albino mouse liver assessed as RNA level per gram of tissue at 18.38 mg/kg administered intragastrically for 1 week; format: functional
# Mus musculus [10] = experiment: Antimutagenic activity in Albino mouse testes assessed as DNA level per gram of tissue at 18.38 mg/kg administered intragastrically for 1 week; format: functional, Testis
# Mus musculus [11] = experiment: Antimutagenic activity in Albino mouse liver assessed as DNA level per gram of tissue at 18.38 mg/kg administered intragastrically for 1 week; format: functional
# Mus musculus [12] = experiment: Antimutagenic activity in Albino mouse kidney assessed as RNA level per gram of tissue at 18.38 mg/kg administered intragastrically for 1 week; format: functional
# Mus musculus [13] = experiment: Antimutagenic activity against cyclophosphamide-induced mutagenicity in mouse liver assessed as protein level per gram of tissue at 18.38 mg/kg administered intragastrically for 1 week; format: functional
# Mus musculus [14] = experiment: Antimutagenic activity in mouse brain assessed as peroxidase activity per microgram of tissue at 18.38 mg/kg administered intragastrically for 1 week; format: functional
# Mus musculus [15] = experiment: Antimutagenic activity against cyclophosphamide-induced mutagenicity in mouse brain assessed as protein level per gram of tissue at 18.38 mg/kg administered intragastrically for 1 week; format: functional
# Mus musculus [16] = experiment: Antimutagenic activity in mouse brain assessed as protein level per gram of tissue at 18.38 mg/kg administered intragastrically for 1 week; format: functional
# Mus musculus [17] = experiment: Antimutagenic activity in Albino mouse kidney assessed as DNA level per gram of tissue at 18.38 mg/kg administered intragastrically for 1 week; format: functional
# Mus musculus [18] = experiment: Antimutagenic activity in Albino mouse brain assessed as DNA level per gram of tissue at 18.38 mg/kg administered intragastrically for 1 week; format: functional
# Mus musculus [19] = experiment: Antimutagenic activity in Albino mouse brain assessed as RNA level per gram of tissue at 18.38 mg/kg administered intragastrically for 1 week; format: functional
# Mus musculus [20] = experiment: Antimutagenic activity against cyclophosphamide-induced mutagenicity in Albino mouse kidney assessed as DNA level per gram of tissue at 18.38 mg/kg administered intragastrically for 1 week; format: functional
# Mus musculus [21] = experiment: Antimutagenic activity in mouse brain assessed as cholinesterase activity per microgram of tissue at 18.38 mg/kg administered intragastrically for 1 week; format: functional
# Mus musculus [22] = experiment: Antimutagenic activity in Albino mouse liver assessed as RNA level per gram of tissue at 18.38 mg/kg administered intragastrically for 1 week; format: functional
# Mus musculus [23] = experiment: Antimutagenic activity in Albino mouse testes assessed as RNA level per gram of tissue at 18.38 mg/kg administered intragastrically for 1 week; format: functional, Testis
# Mus musculus [24] = experiment: Antimutagenic activity against cyclophosphamide-induced mutagenicity in Albino mouse kidney assessed as RNA level per gram of tissue at 18.38 mg/kg administered intragastrically for 1 week; format: functional
# Mus musculus [25] = experiment: Antimutagenic activity against cyclophosphamide-induced mutagenicity in mouse testes assessed as protein level per gram of tissue at 18.38 mg/kg administered intragastrically for 1 week; format: functional, Testis
# Mus musculus [26] = experiment: Antimutagenic activity in mouse liver assessed as protein level per gram of tissue at 18.38 mg/kg administered intragastrically for 1 week; format: functional
# Mus musculus [27] = experiment: Antimutagenic activity against cyclophosphamide-induced mutagenicity in Albino mouse brain assessed as RNA level per gram of tissue at 18.38 mg/kg administered intragastrically for 1 week; format: functional
# Mus musculus [28] = experiment: Antimutagenic activity in mouse kidney assessed as protein level per gram of tissue at 18.38 mg/kg administered intragastrically for 1 week; format: functional
# Mus musculus [29] = experiment: Antimutagenic activity in Albino mouse brain assessed as RNA level per gram of tissue at 23.04 mg/kg administered intragastrically for 1 week; format: functional
# Mus musculus [30] = experiment: Antimutagenic activity in mouse liver assessed as protein level per gram of tissue at 23.04 mg/kg administered intragastrically for 1 week; format: functional
# Mus musculus [31] = experiment: Antimutagenic activity in mouse brain assessed as peroxidase activity per microgram of tissue at 23.04 mg/kg administered intragastrically for 1 week; format: functional
# Mus musculus [32] = experiment: Antimutagenic activity against cyclophosphamide-induced mutagenicity in mouse brain assessed as protein level per gram of tissue at 23.04 mg/kg administered intragastrically for 1 week; format: functional
# Mus musculus [33] = experiment: Antimutagenic activity in Albino mouse kidney assessed as DNA level per gram of tissue at 23.04 mg/kg administered intragastrically for 1 week; format: functional
# Mus musculus [34] = experiment: Antimutagenic activity in mouse kidney assessed as protein level per gram of tissue at 23.04 mg/kg administered intragastrically for 1 week; format: functional
# Mus musculus [35] = experiment: Antimutagenic activity against cyclophosphamide-induced mutagenicity in Albino mouse testes assessed as DNA level per gram of tissue at 23.04 mg/kg administered intragastrically for 1 week; format: functional, Testis
# Mus musculus [36] = experiment: Antimutagenic activity against cyclophosphamide-induced mutagenicity in Albino mouse brain assessed as RNA level per gram of tissue at 23.04 mg/kg administered intragastrically for 1 week; format: functional
# Mus musculus [37] = experiment: Antimutagenic activity against cyclophosphamide-induced mutagenicity in mouse testes assessed as protein level per gram of tissue at 23.04 mg/kg administered intragastrically for 1 week; format: functional, Testis
# Mus musculus [38] = experiment: Antimutagenic activity against cyclophosphamide-induced mutagenicity in Albino mouse liver assessed as DNA level per gram of tissue at 23.04 mg/kg administered intragastrically for 1 week; format: functional
# Mus musculus [39] = experiment: Antimutagenic activity in Albino mouse liver assessed as DNA level per gram of tissue at 23.04 mg/kg administered intragastrically for 1 week; format: functional
# Mus musculus [40] = experiment: Antimutagenic activity against cyclophosphamide-induced mutagenicity in mouse brain assessed as cholinesterase activity per microgram of tissue at 23.04 mg/kg administered intragastrically for 1 week; format: functional
# Mus musculus [41] = experiment: Antimutagenic activity in Albino mouse testes assessed as DNA level per gram of tissue at 23.04 mg/kg administered intragastrically for 1 week; format: functional, Testis
# Mus musculus [42] = experiment: Inhibition of cyclophosphamide-induced increase in micronuclei/polychromatic erythrocytes count in mouse at 23.04 mg/kg administered intragastrically for 1 week by micronuclei assay; format: functional; design: scale not given: the % may be the effect or the level left
# Mus musculus [43] = experiment: Antimutagenic activity against cyclophosphamide-induced mutagenicity in Albino mouse testes assessed as RNA level per gram of tissue at 23.04 mg/kg administered intragastrically for 1 week; format: functional, Testis
# Mus musculus [44] = experiment: Antimutagenic activity against cyclophosphamide-induced mutagenicity in Albino mouse brain assessed as DNA level per gram of tissue at 23.04 mg/kg administered intragastrically for 1 week; format: functional
# Mus musculus [45] = experiment: Antimutagenic activity in mouse brain assessed as cholinesterase activity per microgram of tissue at 23.04 mg/kg administered intragastrically for 1 week; format: functional
# Mus musculus [46] = experiment: Antimutagenic activity in Albino mouse kidney assessed as RNA level per gram of tissue at 23.04 mg/kg administered intragastrically for 1 week; format: functional
# Mus musculus [47] = experiment: Antimutagenic activity in mouse brain assessed as protein level per gram of tissue at 23.04 mg/kg administered intragastrically for 1 week; format: functional
# Mus musculus [48] = experiment: Antimutagenic activity against cyclophosphamide-induced mutagenicity in Albino mouse kidney assessed as DNA level per gram of tissue at 23.04 mg/kg administered intragastrically for 1 week; format: functional
# Mus musculus [49] = experiment: Antimutagenic activity against cyclophosphamide-induced mutagenicity in mouse brain assessed as peroxidase activity per microgram of tissue at 23.04 mg/kg administered intragastrically for 1 week; format: functional
# Mus musculus [50] = experiment: Antimutagenic activity against cyclophosphamide-induced mutagenicity in Albino mouse kidney assessed as RNA level per gram of tissue at 23.04 mg/kg administered intragastrically for 1 week; format: functional
# Mus musculus [51] = experiment: Antimutagenic activity against cyclophosphamide-induced mutagenicity in Albino mouse liver assessed as RNA level per gram of tissue at 23.04 mg/kg administered intragastrically for 1 week; format: functional
# Mus musculus [52] = experiment: Antimutagenic activity against cyclophosphamide-induced mutagenicity in mouse liver assessed as protein level per gram of tissue at 23.04 mg/kg administered intragastrically for 1 week; format: functional
# Mus musculus [53] = experiment: Antimutagenic activity in Albino mouse brain assessed as DNA level per gram of tissue at 23.04 mg/kg administered intragastrically for 1 week; format: functional
# Mus musculus [54] = experiment: Antimutagenic activity against cyclophosphamide-induced mutagenicity in mouse kidney assessed as protein level per gram of tissue at 23.04 mg/kg administered intragastrically for 1 week; format: functional
# Mus musculus [55] = experiment: Antimutagenic activity in Albino mouse liver assessed as RNA level per gram of tissue at 23.04 mg/kg administered intragastrically for 1 week; format: functional
# Mus musculus [56] = experiment: Antimutagenic activity in Albino mouse testes assessed as RNA level per gram of tissue at 23.04 mg/kg administered intragastrically for 1 week; format: functional, Testis
compound,measurement,setting,value
COc1ccc2c(c1)c(CCNC(C)=O)c1sc(-c3sc(N)c(C#N)c3N)nn12,Activity,Mus musculus [1],4.14 g
same,Activity,Mus musculus [2],4.1 U/min
same,Activity,Mus musculus [3],0.22 mg
same,Activity,Mus musculus [4],2.85 U
same,Activity,Mus musculus [5],44%
same,Activity,Mus musculus [6],0.2 mg
same,Activity,Mus musculus [7],0.3 mg
same,Activity,Mus musculus [8],0.29 mg
same,Activity,Mus musculus [9],0.49 mg
same,Activity,Mus musculus [10],0.35 mg
same,Activity,Mus musculus [11],0.33 mg
same,Activity,Mus musculus [12],0.28 mg
same,Activity,Mus musculus [13],9.26 g
same,Activity,Mus musculus [14],6.3 U/min
same,Activity,Mus musculus [15],2.53 g
same,Activity,Mus musculus [16],2.76 g
same,Activity,Mus musculus [17],0.34 mg
same,Activity,Mus musculus [18],0.35 mg
same,Activity,Mus musculus [19],0.19 mg
same,Activity,Mus musculus [20],0.35 mg
same,Activity,Mus musculus [21],3.76 U
same,Activity,Mus musculus [22],0.46 mg
same,Activity,Mus musculus [23],0.27 mg
same,Activity,Mus musculus [24],0.24 mg
same,Activity,Mus musculus [25],3.11 g
same,Activity,Mus musculus [26],9.81 g
same,Activity,Mus musculus [27],0.16 mg
same,Activity,Mus musculus [28],7.17 g
COc1ccc2c(c1)c(CCNC(C)=O)c1sc(-c3c(-c4ccccc4)cnn(-c4ccccc4)c3=N)nn12,Activity,Mus musculus [29],0.21 mg
same,Activity,Mus musculus [30],10.23 g
same,Activity,Mus musculus [31],9.74 U/min
same,Activity,Mus musculus [32],3.15 g
same,Activity,Mus musculus [33],0.38 mg
same,Activity,Mus musculus [34],8.68 g
same,Activity,Mus musculus [35],0.31 mg
same,Activity,Mus musculus [36],0.17 mg
same,Activity,Mus musculus [37],4.31 g
same,Activity,Mus musculus [38],0.32 mg
same,Activity,Mus musculus [39],0.35 mg
same,Activity,Mus musculus [40],3.03 U
same,Activity,Mus musculus [41],0.39 mg
same,Activity,Mus musculus [42],65%
same,Activity,Mus musculus [43],0.2 mg
same,Activity,Mus musculus [44],0.25 mg
same,Activity,Mus musculus [45],4.21 U
same,Activity,Mus musculus [46],0.47 mg
same,Activity,Mus musculus [47],3.2 g
same,Activity,Mus musculus [48],0.36 mg
same,Activity,Mus musculus [49],5.5 U/min
same,Activity,Mus musculus [50],0.4 mg
same,Activity,Mus musculus [51],0.51 mg
same,Activity,Mus musculus [52],10.03 g
same,Activity,Mus musculus [53],0.37 mg
same,Activity,Mus musculus [54],4.96 g
same,Activity,Mus musculus [55],0.48 mg
same,Activity,Mus musculus [56],0.36 mg
